Laboratory results as given in patent US20160136246A1, “Novel Uses of GLP-1 Receptor Agonists in Patients Treated with Insulin and/or Suffering from Type 1 Diabetes” (NOVO NORDISK A/S, priority 2013, published 2016).

Columns and labels:
[1] = test system: adults with type 1 diabetes; assay: Randomised, double-blind crossover trial of liraglutide adjunct to insulin, 4 weeks of treatment: glycaemic control and safety; format: in vivo, human; conditions: for Asymptomatic hypoglycaemic episodes, N = number of subjects / Asymptomatic hypoglycaemic episodes, percentage of subjects / Documented symptomatic hypoglycaemic episodes, N = number of subjects / Documented symptomatic hypoglycaemic episodes, percentage of subjects / Probable symptomatic hypoglycaemic episodes, E = number of events / Probable symptomatic hypoglycaemic episodes, N = number of subjects / Probable symptomatic hypoglycaemic episodes, percentage of subjects / Severe hypoglycaemic episodes, E = number of events / Severe hypoglycaemic episodes, N = number of subjects / Severe hypoglycaemic episodes, percentage of subjects / Total ADA classified hypoglycaemic episodes, E = number of events / Total ADA classified hypoglycaemic episodes, N = number of subjects / Total ADA classified hypoglycaemic episodes, percentage of subjects: during treatment
Protocol: Subjects received target dose for a minimum of 2 weeks.
After 4 weeks of treatment, estimated treatment differences in insulin dose, HbA1c, pulse and body weight were assessed. Hypoglycaemia and hypoglycaemic episodes and overall safety parameters were assessed throughout the treatment period.
Hypoglycaemia and/or hypoglycaemic episodes were defined and assessed according to the ADA Hypoglycaemic Classification (FIG. 3).

[2] = test system: adults with type 1 diabetes; assay: Stepwise hypoglycaemic clamp at the end of each treatment period; format: in vivo, human
Protocol: A stepwise hypoglycaemic clamp was performed at the end of each treatment period via controlled i.v. insulin/glucose infusion (FIG. 5). The successive plasma glucose (PG) levels were 5.5, 3.5, 2.5 mmol/L (nadir), and 4.0 mmol/L (recovery). Counterregulatory hormones (glucagon, adrenalin, noradrenalin, cortisol, and growth hormone) and vital signs (pulse, blood pressure) were measured at each successive PG level during the clamp. Glucose infusion rate was also assessed.

[3] = 1.2 mg liraglutide, during the trial
[4] = 1.8 mg liraglutide, during the trial

CCCCCCCCCCCCCCCC(=O)N[C@@H](CCC(=O)NCCCC[C@H](NC(=O)[C@H](C)NC(=O)[C@H](C)NC(=O)[C@H](CCC(N)=O)NC(=O)CNC(=O)[C@H](CCC(=O)O)NC(=O)[C@H](CC(C)C)NC(=O)[C@H](Cc1ccc(O)cc1)NC(=O)[C@H](CO)NC(=O)[C@H](CO)NC(=O)[C@@H](NC(=O)[C@H](CC(=O)O)NC(=O)[C@H](CO)NC(=O)[C@@H](NC(=O)[C@H](Cc1ccccc1)NC(=O)[C@@H](NC(=O)CNC(=O)[C@H](CCC(=O)O)NC(=O)[C@H](C)NC(=O)[C@@H](N)Cc1cnc[nH]1)[C@@H](C)O)[C@@H](C)O)C(C)C)C(=O)N[C@@H](CCC(=O)O)C(=O)N[C@@H](Cc1ccccc1)C(=O)N[C@H](C(=O)N[C@@H](C)C(=O)N[C@@H](Cc1c[nH]c2ccccc12)C(=O)N[C@@H](CC(C)C)C(=O)N[C@H](C(=O)N[C@@H](CCCNC(=N)N)C(=O)NCC(=O)N[C@@H](CCCNC(=N)N)C(=O)NCC(=O)O)C(C)C)[C@@H](C)CC)C(=O)O [liraglutide]
Upper abdominal pain (N % E, given as a single 0) [1, 3]: 0/0
Vomiting, E = number of events [1, 3]: 1
Vomiting, N = number of subjects [1, 3]: 1
Vomiting, percentage of subjects [1, 3]: 7.1%
Asymptomatic hypoglycaemic episodes, N = number of subjects ([1]; 1.2 mg liraglutide): 10
Asymptomatic hypoglycaemic episodes, percentage of subjects ([1]; 1.2 mg liraglutide): 71.4%
Documented symptomatic hypoglycaemic episodes, N = number of subjects ([1]; 1.2 mg liraglutide): 12
Documented symptomatic hypoglycaemic episodes, percentage of subjects ([1]; 1.2 mg liraglutide): 85.7%
Probable symptomatic hypoglycaemic episodes, E = number of events ([1]; 1.2 mg liraglutide): 1
Probable symptomatic hypoglycaemic episodes, N = number of subjects ([1]; 1.2 mg liraglutide): 1
Probable symptomatic hypoglycaemic episodes, percentage of subjects ([1]; 1.2 mg liraglutide): 7.1%
Severe hypoglycaemic episodes, E = number of events ([1]; 1.2 mg liraglutide): 0 (0) 0/
Severe hypoglycaemic episodes, N = number of subjects ([1]; 1.2 mg liraglutide): 0 (0) 0/
Severe hypoglycaemic episodes, percentage of subjects ([1]; 1.2 mg liraglutide): 0 (0) 0/ %
Total ADA classified hypoglycaemic episodes, E = number of events ([1]; 1.2 mg liraglutide): 263
Total ADA classified hypoglycaemic episodes, N = number of subjects ([1]; 1.2 mg liraglutide): 13
Total ADA classified hypoglycaemic episodes, percentage of subjects ([1]; 1.2 mg liraglutide): 92.9%
AEs leading to withdrawal, E = number of events [1, 4]: 1
AEs leading to withdrawal, N = number of subjects [1, 4]: 1
AEs leading to withdrawal, percentage of subjects [1, 4]: 7.1%
Abdominal distention, E = number of events [1, 4]: 5
Abdominal distention, N = number of subjects [1, 4]: 5
Abdominal distention, percentage of subjects [1, 4]: 35.7%
Abdominal pain (N % E, given as a single 0) [1, 4]: 0/
Adverse events, total number of events, E = number of events [1, 4]: 54
Adverse events, total number of events, N = number of subjects [1, 4]: 13
Adverse events, total number of events, percentage of subjects [1, 4]: 92.9%
Diarrhea, E = number of events [1, 4]: 5
Diarrhea, N = number of subjects [1, 4]: 5
Diarrhea, percentage of subjects [1, 4]: 35.7%
Dyspepsia, E = number of events [1, 4]: 1
Dyspepsia, N = number of subjects [1, 4]: 1
Dyspepsia, percentage of subjects [1, 4]: 7.1%
Flatulence (N % E, given as a single 0) [1, 4]: 0/0
Nausea, E = number of events [1, 4]: 13
Nausea, N = number of subjects [1, 4]: 11
Nausea, percentage of subjects [1, 4]: 78.6%
Regurgitation, E = number of events [1, 4]: 1
Regurgitation, N = number of subjects [1, 4]: 1
Regurgitation, percentage of subjects [1, 4]: 7.1%
Serious AEs (N % E, given as a single 0) [1, 4]: 0/0
Total number of GI AEs, E = number of events [1, 4]: 31
Total number of GI AEs, N = number of subjects [1, 4]: 13
Total number of GI AEs, percentage of subjects [1, 4]: 92.9%
Upper abdominal pain, E = number of events [1, 4]: 2
Upper abdominal pain, N = number of subjects [1, 4]: 2
Upper abdominal pain, percentage of subjects [1, 4]: 14.3%
Vomiting, E = number of events [1, 4]: 4
Vomiting, N = number of subjects [1, 4]: 3
Vomiting, percentage of subjects [1, 4]: 21.4%
Asymptomatic hypoglycaemic episodes, N = number of subjects ([1]; 1.8 mg liraglutide): 13
Asymptomatic hypoglycaemic episodes, percentage of subjects ([1]; 1.8 mg liraglutide): 92.9%
Documented symptomatic hypoglycaemic episodes, N = number of subjects ([1]; 1.8 mg liraglutide): 14
Documented symptomatic hypoglycaemic episodes, percentage of subjects ([1]; 1.8 mg liraglutide): 100%
Probable symptomatic hypoglycaemic episodes, E = number of events ([1]; 1.8 mg liraglutide): 4
Probable symptomatic hypoglycaemic episodes, N = number of subjects ([1]; 1.8 mg liraglutide): 1
Probable symptomatic hypoglycaemic episodes, percentage of subjects ([1]; 1.8 mg liraglutide): 7.1%
Severe hypoglycaemic episodes, E = number of events ([1]; 1.8 mg liraglutide): 0 (0) 0/
Severe hypoglycaemic episodes, N = number of subjects ([1]; 1.8 mg liraglutide): 0 (0) 0/
Severe hypoglycaemic episodes, percentage of subjects ([1]; 1.8 mg liraglutide): 0 (0) 0/ %
Total ADA classified hypoglycaemic episodes, E = number of events ([1]; 1.8 mg liraglutide): 316
Total ADA classified hypoglycaemic episodes, N = number of subjects ([1]; 1.8 mg liraglutide): 14
Total ADA classified hypoglycaemic episodes, percentage of subjects ([1]; 1.8 mg liraglutide): 100%
Number of adverse events (AEs) compared to placebo ([1]; during liraglutide treatment): higher
Gastrointestinal (GI) AEs compared to placebo ([1]; liraglutide adjunct to insulin): more
Number of hypoglycaemias or overall number of hypoglycaemic episodes (ADA classification) ([1]; liraglutide adjunct to insulin): did not affect
Severity of GI AEs ([1]; liraglutide adjunct to insulin): mild or moderate
Safety or tolerability issues ([1]; short-term trial, subjects with type 1 diabetes): No unexpected liraglutide-related safety or tolerability issues
Change in pulse from plasma glucose […] to nadir, estimated treatment difference ([2]; 0.6 mg group vs placebo): 0.6 BPM
Change in pulse from plasma glucose […] to nadir, estimated treatment difference ([2]; 1.2 mg group vs placebo): 2.3 BPM
Change in pulse from plasma glucose […] to nadir, estimated treatment difference ([2]; 1.8 mg group vs placebo): −3.4 BPM
Pulse compared to placebo ([2]; all plasma glucose levels, all liraglutide doses): significantly higher
Other counterregulatory hormones to hypoglycaemia, liraglutide vs placebo ([2]; during hypoglycaemic clamp): no systematic differences
Systolic and diastolic blood pressure, liraglutide vs placebo ([2]; during hypoglycaemic clamp): no systematic differences
